Tested on: 885724-159-R-J1-PDC complex spheroid viability
Assay: Anticancer human tumor 885724-159-R-J1-PDC patient-derived pancreatic adenocarcinoma cell line growth inhibition [GQUAD]
Conditions: for IC50: curve of first compound; for viability, T/C: stronger effect = lower value
Method in brief: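 Multi-cell-type spheroids of tumor cells with HUVEC and mesenchymal stem cells, treated with drug combinations. Concentrations descend in half-log steps from near clinical Cmax, or from 10 microM where Cmax is unknown; viability read-out.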

[1] = second compound 0.0316 µM, first compound 0.0316 µM
[2] = second compound 0.0316 µM, first compound 0.1 µM
[3] = second compound 0.0316 µM, first compound 0.316 µM
[4] = second compound 0.0316 µM, first compound 1 µM
[5] = second compound 0.0316 µM, first compound 3.16 µM
[6] = second compound 0.0316 µM, first compound 10 µM
[7] = second compound 0.1 µM, first compound 0.0316 µM
[8] = second compound 0.1 µM, first compound 0.1 µM
[9] = second compound 0.1 µM, first compound 0.316 µM
[10] = second compound 0.1 µM, first compound 1 µM
[11] = second compound 0.1 µM, first compound 3.16 µM
[12] = second compound 0.1 µM, first compound 10 µM
[13] = second compound 0.316 µM, first compound 0.0316 µM
[14] = second compound 0.316 µM, first compound 0.1 µM
[15] = second compound 0.316 µM, first compound 0.316 µM
[16] = second compound 0.316 µM, first compound 1 µM
[17] = second compound 0.316 µM, first compound 3.16 µM
[18] = second compound 0.316 µM, first compound 10 µM
[19] = second compound 1 µM, first compound 0.0316 µM
[20] = second compound 1 µM, first compound 0.1 µM
[21] = second compound 1 µM, first compound 0.316 µM
[22] = second compound 1 µM, first compound 1 µM
[23] = second compound 1 µM, first compound 3.16 µM
[24] = second compound 1 µM, first compound 10 µM
[25] = second compound 3.16 µM, first compound 0.0316 µM
[26] = second compound 3.16 µM, first compound 0.1 µM
[27] = second compound 3.16 µM, first compound 0.316 µM
[28] = second compound 3.16 µM, first compound 1 µM
[29] = second compound 3.16 µM, first compound 3.16 µM
[30] = second compound 3.16 µM, first compound 10 µM
[31] = second compound 10 µM, first compound 0.0316 µM
[32] = second compound 10 µM, first compound 0.1 µM
[33] = second compound 10 µM, first compound 0.316 µM
[34] = second compound 10 µM, first compound 1 µM
[35] = second compound 10 µM, first compound 3.16 µM
[36] = second compound 10 µM, first compound 10 µM
[37] = second compound 0.0316 µM, first compound 0.000999 µM
[38] = second compound 0.0316 µM, first compound 0.00316 µM
[39] = second compound 0.0316 µM, first compound 0.00999 µM
[40] = second compound 0.0316 µM, first compound 0.0999 µM
[41] = second compound 0.1 µM, first compound 0.000999 µM
[42] = second compound 0.1 µM, first compound 0.00316 µM
[43] = second compound 0.1 µM, first compound 0.00999 µM
[44] = second compound 0.1 µM, first compound 0.0999 µM
[45] = second compound 0.316 µM, first compound 0.000999 µM
[46] = second compound 0.316 µM, first compound 0.00316 µM
[47] = second compound 0.316 µM, first compound 0.00999 µM
[48] = second compound 0.316 µM, first compound 0.0999 µM
[49] = second compound 1 µM, first compound 0.000999 µM
[50] = second compound 1 µM, first compound 0.00316 µM
[51] = second compound 1 µM, first compound 0.00999 µM
[52] = second compound 1 µM, first compound 0.0999 µM
[53] = second compound 3.16 µM, first compound 0.000999 µM
[54] = second compound 3.16 µM, first compound 0.00316 µM
[55] = second compound 3.16 µM, first compound 0.00999 µM
[56] = second compound 3.16 µM, first compound 0.0999 µM
[57] = second compound 10 µM, first compound 0.000999 µM
[58] = second compound 10 µM, first compound 0.00316 µM
[59] = second compound 10 µM, first compound 0.00999 µM
[60] = second compound 10 µM, first compound 0.0999 µM
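Further: spheroids exposed to agents for seven days before readout.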
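Wherever viability, T/C is given: percent of vehicle control viability where 100% = DMSO wells.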

C#Cc1c(F)ccc2cc(O)cc(-c3ncc4c(N5CC6CCC(C5)N6)nc(OCC56CCCN5CC(F)C6)nc4c3F)c12 (stereo not drawn) + Cc1[nH]c2ccc(F)cc2c1-c1nc2c3cccnc3c3ncccc3c2[nH]1
IC50 (second compound 0.0316 µM): 4050 nM
IC50 (second compound 0.1 µM): 3750 nM
IC50 (second compound 0.316 µM): 4070 nM
IC50 (second compound 1 µM): 3550 nM
IC50 (second compound 3.16 µM): < 31.6 nM
IC50 (second compound 10 µM): 4500 nM
viability, T/C [1]: 97%
viability, T/C [2]: 89.2%
viability, T/C [3]: 90.3%
viability, T/C [4]: 76.1%
viability, T/C [5]: 57.5%
viability, T/C [6]: 23.4%
viability, T/C [7]: 101%
viability, T/C [8]: 97.8%
viability, T/C [9]: 102%
viability, T/C [10]: 87.4%
viability, T/C [11]: 54.6%
viability, T/C [12]: 24.9%
viability, T/C [13]: 94.5%
viability, T/C [14]: 80.4%
viability, T/C [15]: 85.4%
viability, T/C [16]: 62.9%
viability, T/C [17]: 63.1%
viability, T/C [18]: 28%
viability, T/C [19]: 72.5%
viability, T/C [20]: 69.2%
viability, T/C [21]: 75%
viability, T/C [22]: 59.4%
viability, T/C [23]: 54.2%
viability, T/C [24]: 29.5%
viability, T/C [25]: 18.4%
viability, T/C [26]: 8.81%
viability, T/C [27]: 12.7%
viability, T/C [28]: 11.5%
viability, T/C [29]: 9.79%
viability, T/C [30]: 6.07%
viability, T/C [31]: 63.1%
viability, T/C [32]: 75.8%
viability, T/C [33]: 66%
viability, T/C [34]: 61.2%
viability, T/C [35]: 63.2%
viability, T/C [36]: 21.7%

CCc1c2c(nc3ccc(O)cc13)-c1cc3c(c(=O)n1C2)COC(=O)[C@]3(O)CC + Cc1[nH]c2ccc(F)cc2c1-c1nc2c3cccnc3c3ncccc3c2[nH]1
IC50 (second compound 0.0316 µM): 114 nM
IC50 (second compound 0.1 µM): 110 nM
IC50 (second compound 0.316 µM): 121 nM
IC50 (second compound 1 µM): 125 nM
IC50 (second compound 3.16 µM): < 0.999 nM
IC50 (second compound 10 µM): 62.4 nM
viability, T/C [37]: 96.4%
viability, T/C [38]: 83.6%
viability, T/C [39]: 83.2%
viability, T/C [1]: 73.9%
viability, T/C [40]: 55.5%
viability, T/C [3]: 18.4%
viability, T/C [41]: 104%
viability, T/C [42]: 90.5%
viability, T/C [43]: 76.8%
viability, T/C [7]: 70.4%
viability, T/C [44]: 60.9%
viability, T/C [9]: 21.3%
viability, T/C [45]: 85.8%
viability, T/C [46]: 86%
viability, T/C [47]: 73.3%
viability, T/C [13]: 69.5%
viability, T/C [48]: 59.8%
viability, T/C [15]: 21.5%
viability, T/C [49]: 78%
viability, T/C [50]: 61.1%
viability, T/C [51]: 57.6%
viability, T/C [19]: 60.6%
viability, T/C [52]: 58.7%
viability, T/C [21]: 18.9%
viability, T/C [53]: 43%
viability, T/C [54]: 28.7%
viability, T/C [55]: 28.4%
viability, T/C [25]: 21.3%
viability, T/C [56]: 14.1%
viability, T/C [27]: 7.27%
viability, T/C [57]: 63%
viability, T/C [58]: 58.8%
viability, T/C [59]: 46.8%
viability, T/C [31]: 60.3%
viability, T/C [60]: 45.5%
viability, T/C [33]: 21.4%

O=C(NO)c1cnc(N2CCN(S(=O)(=O)c3ccc4ccccc4c3)CC2)nc1 + Cc1[nH]c2ccc(F)cc2c1-c1nc2c3cccnc3c3ncccc3c2[nH]1
IC50 (second compound 0.0316 µM): 862 nM
IC50 (second compound 0.1 µM): 841 nM
IC50 (second compound 0.316 µM): 894 nM
IC50 (second compound 1 µM): 706 nM
IC50 (second compound 3.16 µM): < 31.6 nM
IC50 (second compound 10 µM): 802 nM
viability, T/C [1]: 101%
viability, T/C [2]: 96.9%
viability, T/C [3]: 108%
viability, T/C [4]: 42.3%
viability, T/C [5]: 2.03%
viability, T/C [6]: 0.22%
viability, T/C [7]: 101%
viability, T/C [8]: 106%
viability, T/C [9]: 82%
viability, T/C [10]: 47.1%
viability, T/C [11]: 2.38%
viability, T/C [12]: 0.21%
viability, T/C [13]: 90.7%
viability, T/C [14]: 83%
viability, T/C [15]: 95.6%
viability, T/C [16]: 45.7%
viability, T/C [17]: 3.31%
viability, T/C [18]: 0.18%
viability, T/C [19]: 69.2%
viability, T/C [20]: 55.7%
viability, T/C [21]: 94.9%
viability, T/C [22]: 39.9%
viability, T/C [23]: 2.39%
viability, T/C [24]: 0.24%
viability, T/C [25]: 14.8%
viability, T/C [26]: 18.3%
viability, T/C [27]: 31.6%
viability, T/C [28]: 22.1%
viability, T/C [29]: 1.99%
viability, T/C [30]: 0.22%
viability, T/C [31]: 66.2%
viability, T/C [32]: 65.6%
viability, T/C [33]: 74.6%
viability, T/C [34]: 45.5%
viability, T/C [35]: 3.66%
viability, T/C [36]: 0.26%

CC[C@@]1(O)C(=O)OCc2c1cc1n(c2=O)Cc2cc3c(CN(C)C)c(O)ccc3nc2-1 + CN(C)c1ccc(Nc2c3ccc(NC(=O)CCN4CCCC4)cc3nc3cc(NC(=O)CCN4CCCC4)ccc23)cc1
IC50 (second compound 0.0316 µM): > 316 nM
IC50 (second compound 0.1 µM): > 316 nM
IC50 (second compound 0.316 µM): > 316 nM
IC50 (second compound 1 µM): > 316 nM
IC50 (second compound 3.16 µM): > 316 nM
IC50 (second compound 10 µM): > 316 nM
viability, T/C [37]: 100%
viability, T/C [38]: 93.2%
viability, T/C [39]: 97.2%
viability, T/C [1]: 93.6%
viability, T/C [40]: 76.7%
viability, T/C [3]: 67.7%
viability, T/C [41]: 95.9%
viability, T/C [42]: 98.6%
viability, T/C [43]: 100%
viability, T/C [7]: 84.2%
viability, T/C [44]: 78%
viability, T/C [9]: 67.2%
viability, T/C [45]: 78.5%
viability, T/C [46]: 86.1%
viability, T/C [47]: 83.2%
viability, T/C [13]: 82.1%
viability, T/C [48]: 89.6%
viability, T/C [15]: 63.9%
viability, T/C [49]: 76.4%
viability, T/C [50]: 82.3%
viability, T/C [51]: 76.9%
viability, T/C [19]: 65.4%
viability, T/C [52]: 87.2%
viability, T/C [21]: 62.4%
viability, T/C [53]: 81.3%
viability, T/C [54]: 70.5%
viability, T/C [55]: 74.8%
viability, T/C [25]: 66.3%
viability, T/C [56]: 67.9%
viability, T/C [27]: 51.6%
viability, T/C [57]: 89.7%
viability, T/C [58]: 87.5%
viability, T/C [59]: 77.3%
viability, T/C [31]: 79.8%
viability, T/C [60]: 73.7%
viability, T/C [33]: 52.4%
